Data as given in patent US20230330093A1, “APPLICATION OF NITROGEN-CONTAINING SATURATED HETEROCYCLIC COMPOUND” (SHANGHAI PHARMACEUTICALS HOLDING CO., LTD., priority 2020, published 2023).
Read-outs that look alike come from different tables or passages of the source.

Assay: Plasma pharmacokinetics and bioavailability after intravenous and oral administration
Type: in vivo, cynomolgus monkeys
Conditions: for Vd/F: read-out: Vss/F
Procedure: Cynomolgus monkeys (3/sex/group: weight 3-5 kg, age 5-6 years old) were obtained from SuZhou XiShan ZhongKe Laboratory Animals (Shanghai, China). Animals were housed for a 7-day acclimation period before study. The monkeys were individually caged in a controlled temperature (18-26° C.) and humidity (50±20%) animal room with an air flow of 10 plus air changes per hour with fresh air. The lighting cycle was 12 h on and 12 h off, and the monkeys were fed once a day in the morning. All animal experiments were performed in accordance with the Animal Care and Use Guidelines set by the AMMS Animal Care and Use Committee.
The compound of Formula I was intravenously or orally administered to cynomolgus monkeys fasted overnight. The doses were 1 mg/kg (intravenous), 1 mg/kg, 3 mg/kg, and 9 mg/kg (oral). Blood samples were collected from a limb vein at 0, 5, and 15 min and at […], 0.5, 1, 2, 3, 4, 6, 8, 12, and 24 h (0.2 mL for each time point) after administration. All blood samples were centrifuged immediately after collection at 10,000×g for 5 min and the plasmas were stored at −75±10° C. until analysis. Plasma samples were prepared by protein precipitation. The concentrations of the compound of Formula I in plasma were determined by the validated liquid chromatography-tandem mass spectrometry method.
The pharmacokinetic parameters such as the area under the plasma concentration-time curve (AUC), maximum plasma concentration (Cmax), time to reach Cmax (Tmax), half-life (T1/2), total body plasma clearance (CL), mean residence time (MRT) and volume of distribution at steady state (Vss) were calculated by non-compartmental analysis with WinNonlin v1.3 (Pharsight, Mountain View, CA, USA). For allometric scaling, animal pharmacokinetic data were simulated by a two-compartment model with the Kinetica 5.1 software package (v.3.0; InnaPhase, Philadelphia, PA, USA).

[1] = both sexes, cynomolgus monkey, plasma, Monkey, 1 mg/kg iv
[2] = both sexes, cynomolgus monkey, plasma, Monkey, 1 mg/kg po
[3] = both sexes, cynomolgus monkey, plasma, Monkey, 3 mg/kg po
[4] = both sexes, cynomolgus monkey, plasma, Monkey, 9 mg/kg po
[5] = both sexes, cynomolgus, cynomolgus monkey, plasma, Monkey, 3 mg/kg po
[6] = both sexes, cynomolgus, cynomolgus monkey, plasma, Monkey, 9 mg/kg po

With `COC(=O)NCCCn1nc([C@@H](C)N(C(=O)[C@H]2CNCCO2)C2CC2)c2ccc(C)nc21` [compound of Formula I] the F (Monkey, 1 mg/kg po) was 3.3%, the F (Monkey, 3 mg/kg po) was 8.0% and the F (Monkey, 9 mg/kg po) was 11.3%. The half-life (both sexes, cynomolgus monkey, plasma, iv, 1 mg/kg, Monkey, 1 mg/kg iv) was 2.73 h, the half-life (both sexes, cynomolgus monkey, plasma, po, 1 mg/kg, Monkey, 1 mg/kg po) was 2.9 h and the half-life (both sexes, cynomolgus monkey, plasma, po, 9 mg/kg, Monkey, 9 mg/kg po) was 5.99 h. It also gave a half-life (both sexes, cynomolgus monkey, plasma, po, 9 mg/kg, oral 1, 3, 9 mg/kg, monkey plasma) of 2.73 to 5.99 h, an AUC [1] of 421 ng·h/mL and a Cmax [1] of 466 ng/mL. For the same compound, the MRT [1] was 0.97 h, the Vd (both sexes, cynomolgus monkey, plasma, Monkey, 1 mg/kg iv, read-out: Vss) was 1.86 L/kg and the AUC [2] was 11.8 ng·h/mL. For the same compound, the CL/F [2] was 1410 mL/min/kg, the Cmax [2] was 3.99 ng/mL and the MRT [2] was 4.32 h. The Tmax [2] was 1 h, the Vd/F [2] was 366 L/kg and the CL/F [3] was 503 mL/min/kg. It also gave a Vd/F [3] of 104 L/kg, an AUC [4] of 426 ng·h/mL and a Cmax [4] of 263 ng/mL. The MRT [4] was 2.62 h, the Tmax [4] was 1 h and the clearance (both sexes, cynomolgus monkey, plasma, intravenous 1 mg/kg, monkeys) was 32.7 mL/min/kg. The bioavailability (both sexes, cynomolgus monkey, plasma, monkeys, calculated from AUC0-24h after iv and po administration) was 3.3 to 11.3%, the half-life (both sexes, cynomolgus, cynomolgus monkey, plasma, po, 3 mg/kg, Monkey, 3 mg/kg po) was 3.68 h and the AUC [5] was 99.4 ng·h/mL. It also gave a Cmax [5] of 42.2 ng/mL, an MRT [5] of 3.46 h and a Tmax [5] of 1.3 h. It also gave a CL/F [6] of 353 mL/min/kg, a Vd/F [6] of 55.5 L/kg and a distribution volume (intravenous 1 mg/kg, monkeys) of 1.86 L/kg.
